Test results reported in publication PMC11078216, “Discovery of potent and selective activity-based probes (ABPs) for the deubiquitinating enzyme USP30” (RSC Chemical Biology, 2024).
Each block holds one molecule with its values, some of them ahead of it.

Biological target: T1, ALDH1A2 (Homo sapiens, UniProt O94788)
T1 construct: endogenous in cells; host or cells: HEK293T
T1 sequence (O94788 1-518): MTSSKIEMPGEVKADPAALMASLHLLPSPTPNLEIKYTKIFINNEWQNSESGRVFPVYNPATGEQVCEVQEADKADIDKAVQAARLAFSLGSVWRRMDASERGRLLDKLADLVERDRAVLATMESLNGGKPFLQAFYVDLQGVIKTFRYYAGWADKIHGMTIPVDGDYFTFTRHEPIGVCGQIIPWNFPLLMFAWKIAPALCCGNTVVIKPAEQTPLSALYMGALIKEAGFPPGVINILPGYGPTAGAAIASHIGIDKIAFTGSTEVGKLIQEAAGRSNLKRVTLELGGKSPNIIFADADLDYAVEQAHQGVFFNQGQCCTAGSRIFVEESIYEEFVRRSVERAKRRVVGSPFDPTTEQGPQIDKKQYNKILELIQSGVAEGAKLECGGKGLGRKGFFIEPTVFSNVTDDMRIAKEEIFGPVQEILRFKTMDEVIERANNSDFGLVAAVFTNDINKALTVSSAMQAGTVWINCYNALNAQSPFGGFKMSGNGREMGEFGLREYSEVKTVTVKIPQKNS
Test: ABPP chemical proteomics (LC-MS/MS) in HEK293T cells
Type: cell-based
Experimental: To explore the selectivity of IMP-2587 and IMP-2586 across the whole proteome, we performed quantitative activity-based protein profiling (ABPP) in HEK293T cells following treatment with IMP-2587 or IMP-2586 (Fig. 3a). After ABP incubation, cells were lysed, and probe-labelled proteins were ligated to biotinylated capture reagents.[27] […] USP30 was outcompeted by corresponding parent inhibitors for each ABP (Fig. 5b and d and Tables S3 and S5, ESI ^†), confirming the high potency and rapid engagement of IMP-2587 and IMP-2586 in cells. […] DESI1 and DESI2 are small ubiquitin-related modifier (SUMO) proteases,[3,29–32] and IMP-2587 and IMP-2586 may offer a starting point for future development of DESI ABPs. […]
d) Live cell probe incubation, lysate click chemistry and precipitation 6-well HEK293T cells were incubated with media containing compounds ABP 2 and ABP 4 at indicated concentrations for 1 h at 37 °C. The cells were washed with PBS and lysed with lysis buffer (50 μL (1% (v/v) Triton X-100, 0.1% (w/v) sodium dodecyl sulfate (SDS), EDTA-free complete protease inhibitor cocktail (1×, Roche) in PBS on ice for 10 min. The lysates were scraped and transferred to corresponding Lo-Bind Eppendorfs. Each lysate was sonicated for 1 minute, and the samples centrifuges at 5,000 x g at 4 °C for 5 minutes to pellet insoluble cellular debris. The supernatant was collected, and protein concentration was determined using the DC Protein Assay (Bio-Rad) as per manufacturer’s instructions, and normalised to lowest concentrated sample (e.g. 1 mg/mL, using lysis buffer). The following “click mixture” was prepared separately, preparing 6 μL for every 100 μL of […]
Capture reagent (AzRB/AzT for ABP 2, YnT/YnB for ABP 4 10 mM in DMSO, 1 vol; final concentration […]
CuSO4 (50 mM in water, 2 vol; final concentration in reaction 1 mM)
TCEP (50 mM in water, 2 vol; final concentration in reaction 1 mM)
TBTA (10 mM in DMSO, 1 vol; final concentration in reaction 100 µM)
The click mixture was vortexed and incubated at room temperature for 2 min before 6 μL of the mixture was added to every 100 μL of lysate. The reaction mixtures were shaken at room temperature for 1 h before being quenched with EDTA (500 mM in H2O) to a final concentration of 10 mM.
Proteins were precipitated by adding H2O (1 vol), MeOH (2 vol) and CHCl3 (0.5 vol), vortexing briefly then centrifuging at 17,000 × g for 5 min. The top H2O/MeOH layer was discarded and the middle layer of protein pellet and lower CHCl3 layer retained. The suspension was washed with MeOH (300 μL), and sonicated to break up the pellet. The proteins were pelleted by centrifugation at 10,000–17000 × g for 5–10 min or until a compact pellet was formed. The protein pellet was washed once more with MeOH (1 mL). The pellet was resuspended by sonicating and completely dissolving in 1% (w/v) SDS in PBS (to 5 mg/mL protein) before being made up to 1 mg/mL protein with PBS.
The lysate samples (10-20 μg) were mixed with 4× Laemmli sample loading buffer (250 mM Tris -HCl pH 6.8, 30% (v/v) glycerol, 10% (w/v) SDS, 0.05% (w/v) bromophenol blue) supplemented with 20% v/v β-mercaptoethanol (BME) and boiled for 10 min at 95 °C. The resulting protein samples were separated according to the protocol in section 3.2.c. Gel were imaged on a Typhoon imager (GE Healthcare; λEx 532 nm, λEm 575 nm for TAMRA. For protein loading quantification, gels were stained with Coomassie blue staining solution overnight, rinsed with water and imaged on an ImageQuant™ LAS 4000 imager (GE Healthcare). f) Neutravidin biotin enrichment (Affinity pull-down)
Click chemistry and precipitation steps were carried out as described in section 3.2.d, on at least 400ug of protein per sample. The pellet was resuspended by sonicating and completely dissolving in 1% (w/v) SDS in HEPES 50 mM pH 8.0, before being made up to 1 mg/mL protein with HEPES 50 mM pH 8.0 to […]
achieve a final concentration of 0.2% SDS. 20uL of each samples was collected as TL (Total lysate) […]
samples. […]

Structure (SMILES): N#CN1CC[C@@H](NC(=O)c2cc(-c3ccccc3Oc3ccc(N=[N+]=[N-])cc3)n[nH]2)C1 [IMP-2586]
Difference (log2 fold change of enrichment) (IMP-2586 labelling vs DMSO, 30 nM, 10 min, HEK293T (Table S4, Fig.5c)): 3.54

Structure (SMILES): C#Cc1cccc(-c2cc(NC(=O)CC3CCN(C#N)C3)on2)c1 (stereo not shown) [IMP-2587]
Difference (log2 fold change of enrichment) (IMP-2587 labelling vs DMSO, 30 nM, 10 min, HEK293T (Table S2, Fig.5a)): 3.97

Difference (log2 fold change of enrichment) (compound 1 out-competition with IMP-2587 labelling, HEK293T (Table S3, Fig.5b)): -3.93
Structure (SMILES): N#CN1CC[C@H](CC(=O)Nc2cc(-c3cccc(Cl)c3)no2)C1 [compound 1, reference compound]

Difference (log2 fold change of enrichment) (compound 3 out-competition with IMP-2586 labelling, HEK293T (Table S5, Fig.5d)): -2.44
Structure (SMILES): N#CN1CC[C@@H](NC(=O)c2cc(-c3ccccc3Oc3ccccc3)n[nH]2)C1 [compound 3, reference compound]
